For 2 compounds, fold induction results are on record in patent US11325937B2, “Glycoside compound and preparation method therefor, composition, application, and intermediate” (SHANGHAI HUTCHISON PHARMACEUTICALS LIMITED, priority 2018, dated 2022).

The assay concerns VEGF-A mRNA expression in macrophages (RAW264.7). The assay can be described thus: In vitro macrophage experiment: activity of compounds to promote VEGF-A mRNA expression (RT-qPCR). Type of assay: cell-based. As to conditions: Mus musculus, RAW264.7 macrophages, 3 h, relative expression, no drug = 1, read-out: Expression level of VEGF-A mRNA; for fold induction at 500 µM: 0.5 mM; for fold induction at 1000 µM: 1 mM; for fold induction at 2000 µM: 2 mM; for fold induction at 3000 µM: 3 mM; for fold induction at 4000 µM: 4 mM. The procedure, abridged:
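RAW264.7 macrophages were exposed to test compounds at various concentrations for 3 h at 37° C. VEGF-A mRNA was measured by SYBR Green RT-qPCR, normalized to β-Actin, and expressed as 2^−ΔΔCt relative to untreated cells (=1). Activity is the maximal fold induction, with ≥4 as hit criterion.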

With `COc1ccc(CCCCO[C@@H]2O[C@H](CO)[C@@H](O)[C@H](O)[C@H]2O)cc1` [TG-028], the fold induction at 500 µM turned out to be 0.79, the fold induction at 1000 µM was determined as 0.39, the fold induction at 2000 µM was determined as 6.77 and the fold induction at 3000 µM came to 13.4. Further, the fold induction at 4000 µM amounted to 4.23.
For the compound `OC[C@H]1O[C@@H](OCCc2ccccc2)[C@H](O)[C@@H](O)[C@@H]1O` [TG-055], the fold induction at 500 µM turned out to be 6.36, the fold induction at 1000 µM came out at 2.11, the fold induction at 2000 µM was 4.44 and the fold induction at 3000 µM amounted to 3.81. Further, the fold induction at 4000 µM came to 6.11.
